Results: patent US8835428B2, “Diacylglycerol acyltransferase inhibitors” (Piramal Enterprises Limited, priority 2008, dated 2014)

Target: T1, hDGAT1 (Homo sapiens, UniProt O75907)
T1 construct: host or cells: Sf9 insect cells (baculovirus); microsomal preparation
T1 sequence (O75907 1-488): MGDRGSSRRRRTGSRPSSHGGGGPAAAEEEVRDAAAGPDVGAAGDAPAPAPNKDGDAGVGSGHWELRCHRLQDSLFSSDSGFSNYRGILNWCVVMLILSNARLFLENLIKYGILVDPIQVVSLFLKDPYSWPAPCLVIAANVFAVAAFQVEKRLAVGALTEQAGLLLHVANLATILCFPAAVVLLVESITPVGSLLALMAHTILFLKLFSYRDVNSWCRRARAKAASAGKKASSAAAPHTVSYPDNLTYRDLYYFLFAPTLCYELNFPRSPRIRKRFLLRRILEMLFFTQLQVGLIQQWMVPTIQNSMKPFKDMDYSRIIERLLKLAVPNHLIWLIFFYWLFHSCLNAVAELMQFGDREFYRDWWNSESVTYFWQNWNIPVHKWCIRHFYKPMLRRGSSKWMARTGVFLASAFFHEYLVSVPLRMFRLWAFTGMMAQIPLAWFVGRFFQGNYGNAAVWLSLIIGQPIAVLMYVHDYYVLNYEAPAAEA
Assay: In-vitro DGAT1 assay (hDGAT1 microsomes from Sf9 cells, 14C oleoyl CoA, triglyceride formation)
Assay type: biochemical
In short: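 Compounds tested in duplicate at 10, 5 and 1 μM for 10 min at 37 °C. Reaction: Sf9-expressed hDGAT1 microsomes (2.5–10 μg), [14C]oleoyl-CoA plus 409.5–1638 μM dioleoylglycerol, pH 7.4 Tris-HCl with fatty-acid-free BSA. Radiolabelled triglyceride extracted into heptane and scintillation-counted.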

**Q.** Which inhibition at 1 µM (At 1 μM) does the source give for `COC(=O)[C@H](NC(=O)c1cc(-c2ccc(NC(=O)Nc3ccccc3F)cc2)no1)C(C)C` [Example 257, (R)-Methyl 2-(3-(4-(3-(2-fluorophenyl)ureido)phenyl)isoxazole-5-carboxamido)-3-methylbutanoate] here?
**A.** 0 to 50%

**Q.** How did the inhibition at 10 µM turn out when `Cc1cc(-c2cc(C(=O)NC(C(=O)O)C(C)C)on2)ccc1NC(=O)Nc1ccc(F)cc1F` (stereo not shown) [Example 103, 2-(3-(4-(3-(2,4-Difluorophenyl)ureido)-3-methylphenyl)isoxazole-5-carboxamido)-3-methylbutanoic acid] was run?
**A.** 75 to 100%

**Q.** Which inhibition at 10 µM does the source give for `COC(=O)C(NC(=O)c1cc(-c2ccc(NC(=O)Nc3ccccc3F)c(F)c2)no1)C(C)C` (stereo not shown) [Example 147, Methyl 2-(3-(3-fluoro-4-(3-(2-fluorophenyl)ureido)phenyl)isoxazole-5-carboxamido)-3-methylbutanoate] here?
**A.** 50 to 75%

**Q.** With `COC(=O)C(NC(=O)c1cc(-c2ccc(NC(=O)Nc3ccc(F)cc3F)cc2C)no1)C(C)C` (stereo not shown) [Example 137, Methyl 2-(3-(4-(3-(2,4-difluorophenyl)ureido)-2-methylphenyl)isoxazole-5-carboxamido)-3-methylbutanoate] as the compound, how does the inhibition at 10 µM read?
**A.** 0 to 50%

**Q.** Which inhibition at 10 µM does the source give for `CC(C)(NC(=O)c1cc(-c2ccc(NC(=O)Nc3ccccc3)cc2)no1)C(=O)O` [Example 122, 2-methyl-2-(3-(4-(3-phenylureido)phenyl)isoxazole-5-carboxamido) propanoic acid] here?
**A.** 75 to 100%

**Q.** `COC(=O)[C@H](CC(C)C)NC(=NO)c1cc(-c2ccc(Nc3nc4ccc(F)cc4s3)cc2)no1` [Example 50, (S)-2-({3-[4-(6-Fluoro-benzothiazol-2-ylamino)-phenyl]-N-hydroxy-isoxazole-5-carboximidoyl}-amino)-4-methyl-pentanoic acid methyl ester] was tested. Which inhibition at 10 µM did it give?
**A.** 0 to 50%

**Q.** `COC(=O)[C@@H](NC(=O)c1cc(-c2ccc(NC(=O)Nc3ccc(F)cc3)cc2F)no1)C(C)C` [Example 145, (S)-Methyl 2-(3-(2-fluoro-4-(3-(4-fluorophenyl)ureido)phenyl)isoxazole-5-carboxamido)-3-methylbutanoate] was tested. Which inhibition at 5 µM (At 5 μM) did it give?
**A.** 50 to 75%

**Q.** How did the inhibition at 10 µM turn out when `COC(=O)C(C)NC(=O)c1cc(-c2ccc(NC(=O)Nc3ccc(F)cc3)cc2)no1` (stereo not shown) [Example 115, Methyl 2-(3-(4-(3-(4-fluorophenyl)ureido)phenyl)isoxazole-5-carboxamido)propanoate] was run?
**A.** 0 to 50%

**Q.** `COC(=O)[C@@H](NC(=S)c1cc(-c2ccc(Nc3nc4ccc(F)cc4s3)cc2)no1)C(C)C` [Example 6, (S)-2-({3-[4-(6-Fluoro-benzothiazol-2-ylamino)-phenyl]-isoxazole-5-carbothioyl}-amino)-3-methyl-butyric acid methyl ester] was tested. Which inhibition at 10 µM did it give?
**A.** 0 to 50%

**Q.** How did the inhibition at 10 µM turn out when `COC(=O)[C@H](CC(C)C)NC(=O)c1onc(-c2ccc(Nc3nc4ccc(F)cc4s3)cc2)c1-c1ccccc1` [Example 94, (S)-2-({3-[4-(6-Fluoro-benzothiazol-2-ylamino)-phenyl]-4-phenyl-isoxazole-5-carbonyl}-amino)-4-methyl-pentanoic acid methyl ester] was run?
**A.** 0 to 50%

**Q.** Which inhibition at 10 µM does the source give for `CC(C)C[C@H](NC(=S)c1cc(-c2ccc(Nc3nc4ccc(F)cc4s3)cc2)no1)C(=O)O` [Example 49, (S)-2-({3-[4-(6-Fluoro-benzothiazol-2-ylamino)-phenyl]-isoxazole-5-carbothioyl}-amino)-4-methyl-pentanoic acid] here?
**A.** 50 to 75%

**Q.** How did the inhibition at 1 µM (At 1 μM) turn out when `CC(C)[C@@H](C(=O)O)N(C)C(=O)c1cc(-c2ccc(NC(=O)Nc3cccc(C(F)(F)F)c3)cc2)no1` [Example 310, (S)-3-methyl-2-(N-methyl-3-(4-(3-(3-(trifluoromethyl)phenyl)ureido)phenyl)isoxazole-5-carboxamido)butanoic acid] was run?
**A.** 50 to 75%

**Q.** With `CC(C)[C@H](NC(=NO)c1cc(-c2cccc(Nc3nc4ccc(F)cc4s3)c2)no1)C(=O)O` [Example 27, (S)-2-({3-[3-(6-Fluoro-benzothiazol-2-ylamino)-phenyl]-N-hydroxy-isoxazole-5-carboximidoyl}-amino)-3-methyl-butyric acid] as the compound, how does the inhibition at 10 µM read?
**A.** 0 to 50%

**Q.** How did the inhibition at 1 µM (At 1 μM) turn out when `CC(C)[C@H](NC(=O)c1cc(-c2ccc(NC(=O)Nc3ccc(C(F)(F)F)cc3Cl)cc2)no1)C(=O)O` [Example 232, (S)-2-(3-(4-(3-(2-Chloro-4-(trifluoromethyl)phenyl)ureido)phenyl)isoxazole-5-carboxamido)-3-methylbutanoic acid] was run?
**A.** 75 to 100%

**Q.** Which inhibition at 10 µM does the source give for `CC(C)C(NC(=O)c1nc(-c2ccc(NC(=O)Nc3ccc(F)cc3F)cc2)no1)C(=O)O` (stereo not shown) [Example 104, 2-(3-(4-(3-(2,4-difluorophenyl)ureido)phenyl)-1,2,4-oxadiazole-5-carboxamido)-3-methylbutanoic acid] here?
**A.** 75 to 100%

**Q.** How did the inhibition at 10 µM turn out when `COC(=O)C(NC(=O)c1cc(-c2ccc(NC(=O)Nc3ccc(F)cc3F)cc2)no1)C(C)C` (stereo not shown) [Example 111, Methyl 2-(3-(4-(3-(2,4-difluorophenyl)ureido)phenyl)isoxazole-5-carboxamido)-3-methylbutanoate] was run?
**A.** 50 to 75%

**Q.** How did the inhibition at 10 µM turn out when `Cc1cc(NC(=O)Nc2ccc(F)cc2F)ccc1-c1cc(C(=O)NC(C(=O)O)C(C)C)on1` (stereo not shown) [Example 138, 2-(3-(4-(3-(2,4-difluorophenyl)ureido)-2-methylphenyl)isoxazole-5-carboxamido)-3-methylbutanoic acid] was run?
**A.** 75 to 100%

**Q.** How did the inhibition at 10 µM turn out when `CC(C)C(NC(=O)c1cc(-c2ccc(NC(=O)Nc3ccc(F)cc3F)c(F)c2)no1)C(=O)O` (stereo not shown) [Example 150, 2-(3-(4-(3-(2,4-Difluorophenyl)ureido)-3-fluorophenyl)isoxazole-5-carboxamido)-3-methylbutanoic acid] was run?
**A.** 75 to 100%

**Q.** How did the inhibition at 5 µM (At 5 μM) turn out when `COC(=O)[C@@H](NC(=O)c1nc(-c2ccc(NC(=S)Nc3ccc(F)cc3)cc2)no1)C(C)C` [Example 354, (S)-Methyl 2-(3-(4-(3-(4-fluorophenyl)thioureido)phenyl)-1,2,4-oxadiazole-5-carboxamido)-3-methylbutanoate] was run?
**A.** 0 to 50%

**Q.** Which inhibition at 1 µM (At 1 μM) does the source give for `COC(=O)[C@H](NC(=O)c1cc(-c2ccc(NC(=O)Nc3ccc(C#N)cc3)cc2)no1)C(C)C` [Example 218, (R)-methyl 2-(3-(4-(3-(4-cyanophenyl)ureido)phenyl)isoxazole-5-carboxamido)-3-methylbutanoate] here?
**A.** 0 to 50%

**Q.** `CC(C)C(NC(=O)c1cc(-c2ccc(OCc3ccc(F)cc3F)cc2)no1)C(=O)O` (stereo not shown) [Example 332] was tested. Which “% inhibition of hDGAT1” value (At 1 μM) did it give?
**A.** + (>0% Inhibition ≦50)

**Q.** For `CC(C)[C@@H](C(=O)O)N(C)C(=O)c1cc(-c2ccc(NC(=O)Nc3ccc(F)cc3)cc2)no1` [Example 308, (S)-2-(3-(4-(3-(4-fluorophenyl)ureido)phenyl)-N-methylisoxazole-5-carboxamido)-3-methylbutanoic acid], which inhibition at 1 µM (At 1 μM) is on record?
**A.** 50 to 75%

**Q.** For `CC(C)[C@H](NC(=O)c1cc(-c2ccc(NC(=O)Nc3c(Cl)cccc3C(F)(F)F)cc2)no1)C(=O)O` [Example 234, (S)-2-(3-(4-(3-(2-Chloro-6-(trifluoromethyl)phenyl)ureido)phenyl)isoxazole-5-carboxamido)-3-methylbutanoic acid], which inhibition at 1 µM (At 1 μM) is on record?
**A.** 0 to 50%

**Q.** How did the inhibition at 5 µM (At 5 μM) turn out when `COC(=O)C(NC(=O)c1cc(-c2ccc(NC(=O)Nc3ccccn3)cc2)no1)C(C)C` (stereo not shown) [Example 279, Methyl 3-methyl-2-(3-(4-(3-pyridin-2-ylureido)phenyl)isoxazole-5-carboxamido)butanoate] was run?
**A.** 0 to 50%

**Q.** Which inhibition at 5 µM (At 5 μM) does the source give for `CC(C)[C@H](NC(=O)c1cc(-c2ccc(NC(=O)Nc3ccccc3F)cc2F)no1)C(=O)O` [Example 144, (S)-2-(3-(2-Fluoro-4-(3-(2-fluorophenyl)ureido)phenyl)isoxazole-5-carboxamido)-3-methylbutanoic acid] here?
**A.** 75 to 100%

**Q.** With `CC(C)[C@H](NC(=O)c1cc(-c2ccc(NC(=O)Nc3ccc(Cl)cc3)cc2)no1)C(=O)O` [Example 179, (S)-2-(3-(4-(3-(4-Chlorophenyl)ureido)phenyl)isoxazole-5-carboxamido)-3-methylbutanoic acid] as the compound, how does the inhibition at 1 µM (At 1 μM) read?
**A.** 75 to 100%

**Q.** With `COC(=O)C(Cc1ccccc1)NC(=O)c1cc(-c2ccc(NC(=O)Nc3ccccc3F)cc2)no1` (stereo not shown) [Example 241, Methyl 2-(3-(4-(3-(2-fluorophenyl)ureido)phenyl)isoxazole-5-carboxamido)-3-phenylpropanoate] as the compound, how does the inhibition at 5 µM (At 5 μM) read?
**A.** 0 to 50%

**Q.** Which “% inhibition of hDGAT1” value (At 5 μM) does the source give for `COC(=O)C(Cc1ccccc1)NC(=O)c1cc(-c2ccc(NC(=O)Nc3ccc(C)cc3)cc2)no1` (stereo not shown) [Example 243, Methyl 3-phenyl-2-(3-(4-(3-p-tolylureido)phenyl)isoxazole-5-carboxamido) propanoate] here?
**A.** + (>0% Inhibition ≦50)

**Q.** Which inhibition at 5 µM (At 5 μM) does the source give for `Cc1cc(F)ccc1NC(=O)Nc1ccc(-c2cc(C(=O)NC(C(=O)O)C(C)C)on2)cc1` (stereo not shown) [Example 285, 2-(3-(4-(3-(4-fluoro-2-methylphenyl)ureido)phenyl)isoxazole-5-carboxamido)-3-methylbutanoic acid] here?
**A.** 75 to 100%

**Q.** With `CC(NC(=O)c1cc(-c2ccc(NC(=O)Nc3ccc(F)cc3)cc2)no1)C(=O)O` (stereo not shown) [Example 116, 2-(3-(4-(3-(4-fluorophenyl)ureido)phenyl)isoxazole-5-carboxamido) propanoic acid] as the compound, how does the inhibition at 10 µM read?
**A.** 75 to 100%

**Q.** With `CCOC(=O)c1cc(-c2cccc(Nc3nc4ccc(F)cc4s3)c2)no1` [Example 20, 3-[3-(6-Fluoro-benzothiazol-2-ylamino)-phenyl]-isoxazole-5-carboxylic acid ethyl ester] as the compound, how does the inhibition at 10 µM read?
**A.** 0 to 50%
